Results reported in PMC3718762, “Differential Disruption of EWS-FLI1 Binding by DNA-Binding Agents” (PLoS ONE, 2013).
Structures can show the parent of a compound that is named as a salt. Where two headings read alike, the source gives them in different places.

What was measured:
p53 = target: T1, p53 (Homo sapiens, UniProt P04637); assay: AlphaScreen proximity assay (counterscreen), binding of recombinant p53 to cognate DNA oligo
T1 construct: made in house; host or cells: bacteria (pGex-6P-1-p53); plasmid was a gift from Dr. Guangchao Sui
T1 sequence (P04637 whole entry, species assumed): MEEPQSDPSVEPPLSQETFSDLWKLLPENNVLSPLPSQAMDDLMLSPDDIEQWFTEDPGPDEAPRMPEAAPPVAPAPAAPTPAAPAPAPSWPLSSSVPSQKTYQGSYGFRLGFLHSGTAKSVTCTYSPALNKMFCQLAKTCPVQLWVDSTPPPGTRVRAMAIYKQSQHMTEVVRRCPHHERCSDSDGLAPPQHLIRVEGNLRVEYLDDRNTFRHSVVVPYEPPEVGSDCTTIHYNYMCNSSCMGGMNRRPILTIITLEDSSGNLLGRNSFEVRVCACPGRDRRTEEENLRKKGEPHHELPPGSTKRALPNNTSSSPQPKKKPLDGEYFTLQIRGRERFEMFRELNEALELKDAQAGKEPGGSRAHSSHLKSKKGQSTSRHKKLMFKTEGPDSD
Source text: An AlphaScreen assay for binding of recombinant EWS-FLI1 to DNA was previously described. Briefly, recombinant EWS-FLI1 and p53 were synthesized in bacteria transformed with pGex-6P-1-EWS-FLI1 or pGex-6P-1-p53, and bound to AlphaScreen acceptor beads. A biotinylated oligonucleotide containing two copies of the EWS-FLI1 binding motif or p53 binding motifs was bound to AlphaScreen donor beads. For EWS-FLI1, the oligo sequence was: […]. The p53 binding oligo sequence was: […]. This assay was used to screen 5,200 compounds, as previously described. IC50 values were calculated with the GraphPad Prism software package.
We developed a homogeneous AlphaScreen assay to assess the binding of recombinant EWS-FLI1 to DNA [18]. A parallel assay assessing binding of p53 to DNA was used as a counterscreen. Briefly, in these proximity assays, recombinant GST-EWS-FLI1 or GST-p53 was bound to glutathione-conjugated AlphaScreen acceptor beads, and a synthetic biotinylated oligonucleotide (oligo) containing tandem EWS-FLI1 or p53 binding sites was bound to streptavidin-conjugated AlphaScreen donor beads. Binding of GST-EWS-FLI1 or GST-p53 to the cognate oligo allows singlet oxygen transfer from donor to acceptor beads when excited at 680 nm, with resulting light emission between 520–620 nm.

EWS-FLI1 = assay: AlphaScreen proximity assay, binding of recombinant EWS-FLI1 to cognate DNA oligo; details: for IC50: read-out: IC50 EWS-FLI1, disruption of recombinant EWS-FLI1 binding to DNA; for Disruption of EWS-FLI1 binding compared with p53 binding in the parallel assays: EWS-FLI1 versus p53
NR0B1 promoter = assay: NR0B1-Luc firefly luciferase reporter assay in A673 cells; type: cell-based, human; details: A673 cells, NR0B1-Luc versus UbC-RL
Source text: The NR0B1 promoter was amplified from human genomic DNA using the 5′ primer- […] and 3′ primer - […]. NR0B1 promoter amplicon was cloned into the NheI and HindIII sites in the pGL.3Basic vector. The 5′ primer-[…] was used to amplify a truncated NR0B1 promoter in which the entire EWS-FLI1 binding region (GGAA repeats) was deleted to construct pGL.3b-NR0B1del. All constructs were confirmed by sequencing. All other plasmids were previously described.
Ewing sarcoma A673 cells at 50% confluence in 100 mm dishes were transfected with both 5.8 µg of pGL.3b-NR0B1 and 0.2 µg of pGL.3b-Ubc-RL reporter plasmids as above. Eight hours post-transfection, cells were trypsinized and 600 ul (2×10^5) of cells were added to each well of 24 well plates. 5 µl of different concentration of compounds or DMSO control were added to each well. Each treatment was performed in triplicate. Cells were incubated for 16 hours, then cells were lysed in 100 µl of lysis buffer and 10 µl of cell lysate was used for the dual luciferase assay. Renilla luciferase activity was used as an internal control for normalization of nonspecific transcriptional inhibition or cytotoxic effects. Experiments were repeated three times. IC50 values were calculated using Prism (Graphpad).
To determine the effect of compounds on EWS-FLI1 activity in cells, we used a reporter assay comprised of the NR0B1 promoter, a prototypical EWS-FLI1-regulated gene, driving expression of firefly luciferase. Renilla luciferase driven by the Ubiquitin C promoter (UbC-RL) was used as an internal control. Confirming prior studies, the NR0B1 promoter was verified to be highly responsive to EWS-FLI1, whereas the UbC promoter activity was not subject to regulation by EWS-FLI1 (Figure S1).

[1] = test system: EWS-FLI1 downstream targets; parameters: method as in PMID 21403840, PMID 21653923; details: prior studies ref [11], [12]; cited from earlier work
Ewing sarcoma cells = test system: Ewing sarcoma cells; parameters: method as in PMID 21403840, PMID 21653923; details: prior studies ref [11], [12]; cited from earlier work
[2] = AlphaScreen, disruption of recombinant p53 binding to DNA, read-out: IC50 p53

Compound | IC50 (p53; [2]) [µM] | IC50 (EWS-FLI1) [µM] | also measured
CC(C)[C@H](CO)Nc1nc(Nc2cc(N)cc(Cl)c2)c2ncn(C(C)C)c2n1 [Aminopurvalanol A] | 1.2 | 1.83 | 
CCCCc1oc2ccccc2c1C(=O)c1cc(I)c(OCCN(CC)CC)c(I)c1 [Amiodarone HCl] | 5.29 |  | 
N.N.[Cl][Pt][Cl] [Cisplatin] | 8.87 | 5.39 | Disruption of EWS-FLI1 binding compared with p53 binding in the parallel assays (EWS-FLI1): disrupt both EWS-FLI1 and p53 binding similarly
CC(C)/N=c1\cc2n(-c3ccc(Cl)cc3)c3ccccc3nc-2cc1Nc1ccc(Cl)cc1 [Clofazimine] | 0.203 | 0.202 | 
CN(C)c1ccc(/C=C2\C(=O)Nc3ccccc32)cc1 [DMBI] | 3.78 | 3.37 | 
COc1cccc2c1C(=O)c1c(O)c3c(c(O)c1C2=O)C[C@@](O)(C(C)=O)C[C@@H]3O[C@H]1C[C@H](N)[C@H](O)[C@H](C)O1 [Daunorubicin] |  | 4.48 | Disruption of EWS-FLI1 binding compared with p53 binding in the parallel assays (EWS-FLI1): disrupt both EWS-FLI1 and p53 binding similarly
COc1cccc2c1C(=O)c1c(O)c3c(c(O)c1C2=O)C[C@@](O)(C(=O)CO)C[C@@H]3O[C@H]1C[C@H](N)[C@H](O)[C@H](C)O1 [Doxorubincin] |  | 0.344 | IC50 (p53): 1.22 µM; Separation of inhibition of the NR0B1 and UbC reporters (NR0B1 promoter): no separation; Disruption of EWS-FLI1 binding compared with p53 binding in the parallel assays (EWS-FLI1): disrupt both EWS-FLI1 and p53 binding similarly
COc1cc2c(cc1O)CCN[C@]21CS[C@@H]2c3c(OC(C)=O)c(C)c4c(c3[C@H](COC1=O)N1[C@@H]2[C@H]2c3c(cc(C)c(OC)c3O)C[C@@H]([C@@H]1O)N2C)OCO4 [ET-743, trabectedin] |  |  | Expression of EWS-FLI1 downstream targets [1]: reduced; Growth of Ewing sarcoma cells (Ewing sarcoma cells): inhibited
O=c1c2ccccc2[se]n1-c1ccccc1 [Ebselen] | > 10 | 0.631 | Separation of inhibition of the NR0B1 and UbC reporters (NR0B1 promoter): modulated the NR0B1 and UbC reporters equally
COc1cccc2c1C(=O)c1c(O)c3c(c(O)c1C2=O)C[C@@](O)(C(=O)CO)C[C@@H]3O[C@H]1C[C@H](N)[C@@H](O)[C@H](C)O1 [Epirubicin] |  | 0.042 | IC50 (p53): 0.389 µM; Separation of inhibition of the NR0B1 and UbC reporters (NR0B1 promoter): no separation
CCOc1ccc(C=C2SC(=O)N(CCN)C2=O)cc1.Cl [Erk inihibitor] | > 10 | 3.35 | Separation of inhibition of the NR0B1 and UbC reporters (NR0B1 promoter): modulated the NR0B1 and UbC reporters equally
CCOc1ccc2c(c1)C(C)=CC(C)(C)N2 [Ethoxyqiun] | 0.484 | 0.464 | 
Cn1c2ccccc2c2c3c(c4c5ccccc5n(CCC#N)c4c21)CNC3=O [Go 6976] | 2.81 |  | 
COc1ccc2[nH]c([S+]([O-])Cc3ncc(C)c(OC)c3C)nc2c1 (stereo not drawn) [Omeprazole] |  | 7.33 | 
CC(=O)[O][Hg][c]1ccccc1 [Phenylmericuric Acetate] | 0.025 | 0.016 | 
CCN(CC)CCCC(C)Nc1c2ccc(Cl)cc2nc2ccc(OC)cc12 (stereo not drawn) [Quinacrine HCl] | 6.06 | 7.03 | 
c1nc2nc(Nc3ccc(N4CCOCC4)cc3)nc(NC3CCCCC3)c2[nH]1 [Reversine] |  | 2.42 | IC50 (p53): 2.71 µM
CC(C)=CC[C@@H](O)C1=CC(=O)c2c(O)ccc(O)c2C1=O [Shikonin] |  | 0.6 | IC50 (p53): 0.633 µM
Verteporfin |  | 0.342 | 
mithramycin |  |  | Expression of EWS-FLI1 downstream targets [1]: reduced; Growth of Ewing sarcoma cells (Ewing sarcoma cells): inhibited
